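Method: 48-hour compound exposure of cells in 96-well plates, five concentrations, linear interpolation of endpoints. Abbreviation: GI50, concentration required for 50% inhibition of growth. TGI is the concentration that stops growth completely.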
Experiments:
Assay in all cases: NCI-60 cell line screen, 48 h
OVCAR-8 ovarian = system: OVCAR-8 ovarian
T-47D breast = system: T-47D breast
A498 renal = system: A498 renal
SNB-75 CNS = system: SNB-75 CNS
SNB-19 CNS = system: SNB-19 CNS
HOP-92 NSCLC = system: HOP-92 NSCLC
RXF 393 renal = system: RXF 393 renal
CAKI-1 renal = system: CAKI-1 renal
HOP-62 NSCLC = system: HOP-62 NSCLC
M14 melanoma = system: M14 melanoma

Compound | GI50 (OVCAR-8 ovarian) | TGI (OVCAR-8 ovarian) | GI50 (T-47D breast) | TGI (T-47D breast) | GI50 (A498 renal) | TGI (A498 renal) | GI50 (SNB-75 CNS) | TGI (SNB-75 CNS) | GI50 (SNB-19 CNS) | TGI (SNB-19 CNS) | GI50 (HOP-92 NSCLC) | TGI (HOP-92 NSCLC) | GI50 (RXF 393 renal) | TGI (RXF 393 renal) | GI50 (CAKI-1 renal) | TGI (CAKI-1 renal) | GI50 (HOP-62 NSCLC) | TGI (HOP-62 NSCLC) | GI50 (M14 melanoma) | TGI (M14 melanoma)
O=c1oc2c(C(F)(F)F)cccc2cc1-c1csc(Nc2ccc(OCCF)cc2)n1 | 0.0393 µM | 7.66 µM | 0.0797 µM | > 100 µM | 0.0353 µM | 20.9 µM | 0.0302 µM | 12 µM | 0.0873 µM | > 56.4 µM | 0.0975 µM | 3.88 µM | 0.0343 µM | 18.2 µM | 0.0521 µM | > 34.7 µM | 0.0378 µM | > 36.8 µM | 0.0282 µM | 1.14 µM
COc1ccc(Cn2cc3c(c2-c2cc(OC)c(OC)c(OC)c2)CCc2cnoc2-3)cc1 | 0.485 µM | > 100 µM | 0.82 µM | > 100 µM | 0.162 µM | 0.726 µM | 0.147 µM | 0.746 µM | 0.502 µM | > 100 µM | > 21.4 µM | > 100 µM | 0.26 µM | > 100 µM | 0.334 µM | > 100 µM | 0.446 µM | > 100 µM | 0.216 µM | 0.87 µM
CCN(Cc1c(Cl)cccc1Cl)c1ccc(CO)c(Cl)c1 | 13.7 µM | 29.7 µM | < 0.017 µM | 0.18 µM | < 0.02 µM | 0.0465 µM | 11 µM | 25.3 µM | 13.2 µM | 26.2 µM | 0.606 µM | 9.64 µM | 7.16 µM | 24.7 µM | 4.23 µM | 21.9 µM | 2.15 µM | 21.2 µM | 15.5 µM | 30.9 µM
C/C(=N\NC(=S)N(C)C)c1ccccn1 | 0.00318 µM | 10.8 µM | – | 11.5 µM | – | 8.11 µM | – | 14.4 µM | 0.011 µM | 16.3 µM | – | 17.8 µM | – | 13.4 µM | 0.0567 µM | 12.5 µM | 0.0203 µM | 12.4 µM | 0.00884 µM | 11.5 µM
CCN(CC)c1ccc(/C=C/C=C2\NC(=O)NC2=O)cc1 | 6.21 µM | 66.6 µM | 4 µM | > 100 µM | 1.26 µM | 6.55 µM | 2.67 µM | 79.5 µM | 16.1 µM | > 100 µM | 1.74 µM | 24.2 µM | 1.03 µM | 5.93 µM | 2.65 µM | > 100 µM | 3.64 µM | > 100 µM | 1.56 µM | > 100 µM
O=C(CCc1ccc(O)cc1)N/N=C/c1cc(Br)ccc1O | 3.7 µM | > 100 µM | 3.74 µM | 41.6 µM | 9.81 µM | 49.6 µM | 5.25 µM | > 100 µM | 6.51 µM | > 100 µM | 4.9 µM | 49.3 µM | 6.51 µM | > 100 µM | 1.95 µM | 8.99 µM | 6.76 µM | 57.6 µM | 2.75 µM | 17.4 µM
Cc1ccc(-c2cc(O)c(-c3ccc(C)cc3C)cc2O)c(C)c1 | 4.04 µM | 22.2 µM | 5.24 µM | 42.9 µM | 5.32 µM | 18 µM | 5.46 µM | 19.7 µM | 10.9 µM | 30.9 µM | 5.44 µM | 28.9 µM | 5.6 µM | 19.7 µM | 3.41 µM | 34.3 µM | 11.2 µM | 25.9 µM | 6.58 µM | 19.9 µM
Nc1c(C(=O)Nc2cccc(Cl)c2Cl)sc2nc3c(cc12)C(=O)CCC3 | > 100 µM | > 100 µM | > 100 µM | > 100 µM | 0.399 µM | 9.33 µM | > 100 µM | > 100 µM | 4.64 µM | > 100 µM | > 100 µM | > 100 µM | > 100 µM | > 100 µM | > 100 µM | > 100 µM | > 100 µM | > 100 µM | > 100 µM | > 100 µM
CC(C)=CCCC(C)C1=C(O)C(=O)C(C)=CC1=O (stereo not given) | – | 40.9 µM | – | 3.92 µM | – | 35.1 µM | – | 37.6 µM | – | > 62.4 µM | – | 3.67 µM | – | 17.8 µM | – | 15.1 µM | – | 36.9 µM | – | 36 µM
CC(=O)c1cc(O)c2ccccc2c1O | 20.2 µM | 38.6 µM | 17.4 µM | 41.4 µM | 89.5 µM | > 100 µM | 15.7 µM | 32.8 µM | 46 µM | > 100 µM | 16.6 µM | 31 µM | 19.5 µM | 33.8 µM | 15.5 µM | 30.2 µM | 17.5 µM | 41.4 µM | 19.7 µM | 36.7 µM
O=C1C(Cl)=C(Nc2cccc(O)c2)C(=O)N1Cc1ccc(Cl)cc1Cl | 1.94 µM | 27.1 µM | 19.1 µM | > 100 µM | 1.57 µM | 10.2 µM | 6.1 µM | 20.6 µM | 3.39 µM | 33.8 µM | 12.2 µM | 26.9 µM | 1.06 µM | 11.1 µM | 13.4 µM | 26.7 µM | 14.4 µM | 30.5 µM | 8.18 µM | 22.8 µM
Cc1cccc(Cc2cnc(NC(=O)CCc3ccc(C)o3)s2)c1 | 0.406 µM | > 100 µM | 0.427 µM | > 100 µM | 0.343 µM | 10.5 µM | 0.165 µM | 5.67 µM | 0.37 µM | > 100 µM | 7.31 µM | 98.7 µM | 0.204 µM | 3.71 µM | 0.235 µM | 50.8 µM | 0.345 µM | > 55.6 µM | 0.136 µM | > 41.4 µM
COc1ccc2ccc3oc([N+](=O)[O-])cc3c2c1 | 0.216 µM | 3.27 µM | 1.83 µM | > 100 µM | 0.126 µM | 0.301 µM | 0.166 µM | 0.527 µM | 0.281 µM | > 100 µM | 0.155 µM | 0.506 µM | 0.141 µM | 0.316 µM | 0.186 µM | 0.514 µM | 1.03 µM | 6.34 µM | 0.115 µM | 0.307 µM
CCN(c1cc(C#CCN2CCOCC2)cc(C(=O)NCc2c(C)cc(C)[nH]c2=O)c1C)C1CCC(N(C)CCOC)CC1 (stereo not given) | > 100 µM | > 100 µM | > 100 µM | > 100 µM | > 100 µM | > 100 µM | 53.1 µM | > 100 µM | > 100 µM | > 100 µM | > 100 µM | > 100 µM | > 100 µM | > 100 µM | > 100 µM | > 100 µM | > 100 µM | > 100 µM | > 100 µM | > 100 µM
Oc1c(CN2CCN(c3ccccc3)CC2)cc(Br)c2cccnc12 | – | > 100 µM | – | > 47.3 µM | – | > 100 µM | – | 18.1 µM | – | > 100 µM | – | 30.8 µM | – | 13.5 µM | – | > 100 µM | – | 15.2 µM | – | > 42 µM
CCCCCCCCCCCCCCCCCC(=O)Nc1ccn(C2OC(CO)C(O)C2O)c(=O)n1 (stereo not given) | – | > 84.8 µM | – | > 100 µM | – | 99 µM | – | > 94.6 µM | – | 69.7 µM | – | > 100 µM | – | > 100 µM | – | > 100 µM | – | > 96.2 µM | – | > 77.3 µM

Source: PubChem BioAssay (NCI)
